Source: patent US9919058B2, “Polyketal particles including a CpG oligodeoxynucleotide for the treatment of lung cancer” (THE UNITED STATES OF AMERICA, as represented by the …, priority 2014, dated 2018)
Where two headings read alike, the source gives them in different places.

Key:
[1] = test system: Lewis lung carcinoma (LLC1) cells
Procedure: Treatment Protocols and Tumor Cell Implantation: C57BL/6, TLR9 KO and Rag1 KO mice were obtained from the National Cancer Institute (Frederick, Md.) and studied at 5-6 wk of age. […] On the day of inoculation, cultured cells were trypsinized, washed and suspended in 0.9% saline.
One week later, free ODN or ODN-NP were administered either systemically (i.p.) or locally (i.t.). Instillation was achieved via orotracheal intubation using a 20 gauge 1″ catheter (TERUMO, Somerset, N.J.) under anesthesia. Survival curves were generated from 4-6 mice per group and all results derived by combining data from 2-4 independent experiments. All animals were monitored 3×/wk and moribund mice euthanized as per Institutional Animal Care and Use Committee protocol.
Statistical Analysis: Statistical analyses were performed using MedCalc, version 13.0 (MedCalc Software, Mariakerke, Belgium). Differences in survival were determined using the log rank test of Kaplan-Meier. Differences between groups were assessed using a one-way ANOVA followed by Student-Newman-Keuls post-hoc test. […] All values are expressed as mean±SE.

[2] = test system: Spleen cells from WT or TLR9 KO mice; test: In vitro stimulation of spleen cells (CCK-8 proliferation; IL-6/IL-12 ELISA); assay type: cell-based
Procedure: FIGS. 2A-2C. In vitro activity of CpG-NP (aggregates provided microprticles “MP’). Spleen cells from WT or TLR9 KO mice were cultured with 1 μM of free or NP adsorbed CpG ODN or 1 μg/mL of R837 (TLR7 ligand). 2A) Cell proliferation after 72 hr. 2B, 2C) IL-12 and IL-6 production after 24 hr.
In Vitro Cell Proliferation Assay: Single spleen cell suspensions were prepared. 5×10^4 cells/well were cultured in 96-well flat bottomed microtiter plates in complete RPMI 1640 medium supplemented with 10% fetal calf serum, 100 U/mL penicillin, […], […], 1.0 mmol/L sodium pyruvate, NEAA, and 0.0035% 2-ME. The cells were stimulated free ODN, ODN-NP, or R837 (TLR7 agonist) for 72 hr. Cell proliferation was assessed using the CCK-8 assay as per manufacturer's recommendation (Dojindo molecular technologies, Inc. Rockville, Md.).
ELISA: Cytokine levels in BAL, serum, and culture supernatants were measured by ELISA as previously described (Klinman et al., PNAS 1996; 93:2879-2883). Briefly, paired IL-6 and IL-12-specific mAbs were purchased from BD Pharmingen. Ninety-six-well Immulon H2B plates (Thermo LabSystems, Beverly, Mass.) were coated with capture cytokine-specific Abs and then blocked with PBS/1% BSA. Samples were added and bound cytokine detected by the addition of biotin-labeled secondary Ab, followed by phosphatase-conjugated avidin and a phosphatase-specific colorimetric substrate. Standard curves were generated using recombinant cytokines purchased from R&D Systems (Minneapolis, Minn.).

Immune Cells = test: BAL cellularity and IL-12 after i.t. delivery to normal mice; assay type: in vivo; details: 50 μg i.t., BAL 2 days later
Procedure: FIGS. 4A-4B. Activity of CpG-NP (aggregates provided microprticles “MP’) in vivo. 50 μg of CpG ODN (free or adsorbed onto NP) was administered i.t. to normal mice. BAL was collected and analyzed for (4A) cellularity and (4B) IL-12 levels 2 days later.
Tissue Collection and Evaluation of Tumor Development: Bronchoalveolar lavage (BAL) fluid was obtained by tracheal cannulation of anesthetized mice. Cell differentials were performed on cytocentrifuged BAL preparations after fixation and staining with Diff-Quick (Dade Behring, Newark, Del.).
IL-12 levels in BAL and serum were determined by ELISA. Lungs were inflated and fixed by instilling 1 mL of 10% neutral-buffered formalin or periodate lysine paraformaldehyde (PLP) fixative (Wako Chemicals USA, Inc. Richmond, Va.) at 20 cm H2O. Fixed tissue was embedded in paraffin, sectioned, and stained with hematoxylin and eosin for histopathological assessment. Tumor area was evaluated in mid-line sections and quantified using Image J software ver.1.48 (National Institute of Health, Bethesda, Md.).
ELISA: Cytokine levels in BAL, serum, and culture supernatants were measured by ELISA as previously described (Klinman et al., PNAS 1996; 93:2879-2883). […] Samples were added and bound cytokine detected by the addition of biotin-labeled secondary Ab, followed by phosphatase-conjugated avidin and a phosphatase-specific colorimetric substrate. […]

[3] = mouse, in vivo
Procedure: Biodistribution of CpG ODN. LLC were implanted as described in FIG. 1. […] Tissue samples were stained to identify macrophages (red F4/80^+), DC (red CD205^+) or CpG (green) and analyzed by confocal microscopy.
Immunohistochemistry and Immunofluorescent Analysis: Tissue sections were deparaffinized with xylene and rehydrated with graded ethanol. Endogenous peroxidase activity was blocked by incubation with 0.3% H2O2 in methanol for 30 min followed by Protein Block (Dako, Carpinteria, Calif.). […] Isotype matched negative controls were included to insure specificity.
For immunohistochemistry, stained sections were incubated with HRP-conjugated anti-rat or rabbit IgG (simple stain mouse Max Po; Nichirei, Tokyo, Japan) plus 3-amino-9-ethyl carbazole (AEC) substrate for color development (Nichirei). The sections were counterstained with Mayer's hematoxylin (Dako) and images were obtained using an IX50 inverted microscope equipped with digital imaging system (Olympus, Center Valley, Pa.). […] Cell nuclei were visualized with DAPI (Vector). […] Fluorescent images were acquired with a laser-scanning confocal microscope (LSM 510; Zeiss, Thronwood, N.Y.), equipped with a 63x/1.4NA oil objective.

advanced NSCLC = details: cited from earlier work
Lewis lung cancer = details: CpG ODN in combination with chemotherapy; cited from earlier work
[4] = in vivo; cited from earlier work
large established tumor = details: 3M-052 co-delivered with CpG ODN into the tumor site; tumor size over 500 mm(3); cited from earlier work
Rat = details: in vivo, po; cited from earlier work

For GCTAGACGTTAGCGT [CpG ODN], the median survival time ([1]; 50 μg i.t. weekly for one month from day 7, C57BL/6, untreated 22 days) was 38 days, the “HR (survival vs No Rx)” value ([1]; dose of ODN 10 μg) was 0.33 and the long term survival ([1]; dose of ODN 10 μg weekly for one month) was less than 40%. For the same compound, the long term survival ([1]; dose of ODN 50 μg weekly for one month) was greater than 80%, the toxicity ([1]; dose of ODN 100 μg) was “evidence of toxicity (pulmonary inflammation and weight loss)” and the “HR (survival vs No Rx)” value ([1]; intra-tracheal (i.t.) delivery, 50 μg) was 0.28. For the same compound, the “tumors on re-challenge of survivors with LLC” value ([1]; survivors of therapy re-challenged) was “no tumors arose”, the “HR (survival vs No Rx)” value ([1]; systemic (i.p.) delivery) was 0.55 and the “effect on survival” value ([1]; systemic (i.p.) delivery) was “modest but statistically insignificant survival benefit”. For the same compound, the “response of cells from TLR9 KO mice” value ([2]; TLR9 KO spleen cells) was “failed to respond”, the “IL-6 and IL-12 secretion” value ([2]; WT spleen cells, 1 μM, 24 hr) was “induced WT cells to secrete IL-6 and IL-12” and the cell proliferation ([2]; WT spleen cells, 1 μM, 3 days (72 hr)) was “proliferate over 3 days”. For the same compound, the “relative effectiveness of free CpG vs CpG-NP” value ([2]; WT spleen cells, 24 hr vs 3 days of culture) was “more effective at the earlier time point”, the “pulmonary IL-12 levels” value (Immune Cells) was “significant increase in pulmonary IL-12 levels” and the “rise in BAL cellularity vs saline” value (Immune Cells; normal mice) was “≈ 25%”. The “clearance from the lungs” value [3] was “rapidly cleared from the lungs”, the localisation in lung [3] was “detected throughout the mucosal surface of the bronchial tree” and the “localisation/persistence in lung and tumor” value [3] was “little of this material remained in the bronchi or could be detected in the tumor”. The objective response rate (advanced NSCLC; patients who received CpG ODN, chemotherapy alone 19-23%) was 28-30%, the “survival benefit in phase 3 trials” value (advanced NSCLC; patients with NSCLC, phase 3) was “no survival benefit was observed” and the effect on survival (Lewis lung cancer) was “significantly prolonged survival”. The “mean t1/2” value [4] was “≈ 12 h” and the median tmax [4] was 2 h.
In the case of “GCTAGAGCTTAGCGT [control ODN, reference compound]”, the “effect on survival” value ([1]; i.t. delivery) is reported as “no effect”.
In the case of CCCCCCCCCCCCCCCCCC(=O)NCCCCOn1c(CCCC)nc2c(N)nc3ccccc3c21 [3M-052, N-(4-{[4-amino-2-butyl-1H-imidazo[4,5-c]quinolin-1-yl]oxy}butyl) octadecanamide], the “effect on established tumor” value (large established tumor) is given as “eliminated the large established tumor”.
In the case of OCC1CCC(CO)CC1 (centres unmarked) [1,4-cyclohexanedimethanol], the LD50 (Rat) is given as 3,200 mg/kg.
